Earlier results in US9750672B1, “Aloe derived mineral supplement” (AL Global Inc., priority 2013, dated 2017).

Experiments:
[1] = magnesium load 25 mmol; for increment in urinary magnesium during 4 hours post-load: p<0.05; for increment in urinary magnesium during second 2 hours post-load: p less than 0.05

| Compound | solubility in simulated peak acid secretion (24.2 mEq hydrochloric acid/300 ml) | solubility in water (water) | increment in urinary magnesium during 4 hours post-load [1] | increment in urinary magnesium during second 2 hours post-load [1] |
| --- | --- | --- | --- | --- |
| [O]=[Mg] [Magnesium oxide] | 43% | virtually insoluble | 0.006 mg/mg creatinine | 0.008 mg/mg creatinine |
| Magnesium citrate |  |  | 0.22 mg/mg creatinine | 0.035 mg/mg creatinine |
